Results on three compounds are retold here after PMC11315827 (Drugs in R&D, 2024).

The nature of data set [1]: Nonhuman primate PK study, plasma and CSF. The settings on record: for unbound partition coefficient Kp,uu CSF: based on plasma free fractions; for half-life / Cmax: male, cynomolgus monkey, in vivo, po; for Cmax: plasma Cmax.
In data set [2] the target is BTK (Homo sapiens, UniProt Q06187). The settings on record: "reported as"; cited from earlier work.
Data set [3] has as its system Ramos cell expression of CD69 (BTK signaling). Briefly: cells. As to conditions: Homo sapiens, 18 h, read-out: apparent IC50 (CD69 expression).
Data set [4] concerns the target T1, BMX (Homo sapiens, UniProt P51813).
T1 sequence (P51813 1-675): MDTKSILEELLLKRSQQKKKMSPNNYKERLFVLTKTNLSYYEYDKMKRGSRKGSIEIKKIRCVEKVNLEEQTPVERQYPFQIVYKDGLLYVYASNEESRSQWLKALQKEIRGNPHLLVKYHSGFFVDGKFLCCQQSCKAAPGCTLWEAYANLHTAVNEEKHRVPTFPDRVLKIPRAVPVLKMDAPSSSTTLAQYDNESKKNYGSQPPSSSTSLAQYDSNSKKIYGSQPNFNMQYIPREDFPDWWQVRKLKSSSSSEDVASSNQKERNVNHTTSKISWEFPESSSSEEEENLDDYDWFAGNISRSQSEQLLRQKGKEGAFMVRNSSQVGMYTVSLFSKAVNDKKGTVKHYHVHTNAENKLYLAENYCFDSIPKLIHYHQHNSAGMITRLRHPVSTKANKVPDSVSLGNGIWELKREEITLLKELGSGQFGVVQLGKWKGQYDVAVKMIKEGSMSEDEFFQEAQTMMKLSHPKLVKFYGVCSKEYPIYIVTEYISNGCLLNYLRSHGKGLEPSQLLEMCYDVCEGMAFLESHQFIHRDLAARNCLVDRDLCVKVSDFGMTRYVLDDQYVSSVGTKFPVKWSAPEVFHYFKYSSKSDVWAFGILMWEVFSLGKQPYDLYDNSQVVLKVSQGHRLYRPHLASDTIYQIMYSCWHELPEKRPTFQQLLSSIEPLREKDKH
Briefly: Kinase screening assays.

Data set [5] has as its target T2, TXK (Homo sapiens, UniProt P42681).
T2 sequence (P42681 1-527): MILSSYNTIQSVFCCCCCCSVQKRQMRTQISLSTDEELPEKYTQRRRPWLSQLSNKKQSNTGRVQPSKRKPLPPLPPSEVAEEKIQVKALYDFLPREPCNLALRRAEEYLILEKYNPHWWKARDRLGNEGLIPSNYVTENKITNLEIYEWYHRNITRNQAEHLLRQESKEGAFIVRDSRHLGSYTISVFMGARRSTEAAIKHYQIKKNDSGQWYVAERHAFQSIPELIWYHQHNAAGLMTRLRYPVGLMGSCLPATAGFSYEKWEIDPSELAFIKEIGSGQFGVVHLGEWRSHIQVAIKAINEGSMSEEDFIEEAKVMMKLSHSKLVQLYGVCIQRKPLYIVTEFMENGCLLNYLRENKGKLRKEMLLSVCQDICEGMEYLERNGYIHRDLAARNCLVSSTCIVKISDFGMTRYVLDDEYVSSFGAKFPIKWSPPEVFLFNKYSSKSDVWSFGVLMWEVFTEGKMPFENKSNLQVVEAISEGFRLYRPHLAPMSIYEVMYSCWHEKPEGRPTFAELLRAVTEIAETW
Briefly: Kinase screening assays.

Data set [6] deals with BLK (Homo sapiens, UniProt P51451). The data set can be described thus: Kinase screening assays.

Several values for one entry are separate records, joined by “and”; a condition that tells them apart may be missing. Equal values may be shown once. Bounds are passed on as bounds.

For orientation: half-life means the time in which the quantity being followed falls by half. For orientation: Cmax means the highest concentration seen after dosing. What is called IC50 is the concentration that inhibits the measured activity by half.

BLK, sequence (P51451 whole entry, species assumed): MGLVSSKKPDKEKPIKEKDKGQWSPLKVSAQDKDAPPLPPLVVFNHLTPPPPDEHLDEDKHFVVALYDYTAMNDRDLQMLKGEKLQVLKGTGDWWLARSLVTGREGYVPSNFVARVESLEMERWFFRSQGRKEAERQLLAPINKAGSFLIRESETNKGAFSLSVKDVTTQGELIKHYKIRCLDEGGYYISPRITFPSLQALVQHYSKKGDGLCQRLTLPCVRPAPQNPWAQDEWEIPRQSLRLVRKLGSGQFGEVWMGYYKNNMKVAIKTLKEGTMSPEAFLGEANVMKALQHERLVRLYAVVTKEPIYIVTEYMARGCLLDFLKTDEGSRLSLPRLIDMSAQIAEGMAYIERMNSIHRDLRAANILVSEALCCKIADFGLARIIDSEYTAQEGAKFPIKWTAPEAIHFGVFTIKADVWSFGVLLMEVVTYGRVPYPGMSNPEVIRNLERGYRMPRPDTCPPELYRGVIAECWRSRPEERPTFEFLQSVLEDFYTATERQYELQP
BTK, sequence (Q06187 whole entry): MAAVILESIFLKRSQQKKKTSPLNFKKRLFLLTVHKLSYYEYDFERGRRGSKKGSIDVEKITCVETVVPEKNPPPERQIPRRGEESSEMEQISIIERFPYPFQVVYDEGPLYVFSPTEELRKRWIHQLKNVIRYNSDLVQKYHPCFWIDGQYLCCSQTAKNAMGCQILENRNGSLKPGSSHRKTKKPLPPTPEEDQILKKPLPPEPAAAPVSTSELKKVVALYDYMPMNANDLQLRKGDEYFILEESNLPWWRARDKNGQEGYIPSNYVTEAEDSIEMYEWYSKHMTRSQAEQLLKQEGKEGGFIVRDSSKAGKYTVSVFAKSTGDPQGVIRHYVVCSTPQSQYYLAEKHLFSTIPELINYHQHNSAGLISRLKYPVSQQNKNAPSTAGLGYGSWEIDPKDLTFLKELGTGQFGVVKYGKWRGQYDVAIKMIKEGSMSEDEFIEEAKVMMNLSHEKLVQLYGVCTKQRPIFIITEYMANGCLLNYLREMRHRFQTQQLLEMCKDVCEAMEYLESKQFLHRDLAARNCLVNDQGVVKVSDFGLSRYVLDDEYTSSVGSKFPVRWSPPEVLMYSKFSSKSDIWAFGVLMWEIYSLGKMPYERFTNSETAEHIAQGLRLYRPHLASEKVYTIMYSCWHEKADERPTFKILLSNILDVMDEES

Take `C=CC(=O)N1CCC(CNc2ncnc(N)c2-c2ccc(Oc3ccccc3)cc2)CC1` [Evobrutinib]: in data set [1], the “unbound partition coefficient Kp,uu CSF” value was determined as 0.131. The same compound gave a half-life in data set [1] (10 mg/kg) of approximately 4 h. Further, the Cmax in data set [1] (10 mg/kg, oral 10 mg/kg) was 287 ng/mL and 669 nM.

Take `C[C@H]1CN(C2COC2)CCN1c1ccc(Nc2cc(-c3ccnc(N4CCn5c(cc6c5CC(C)(C)C6)C4=O)c3CO)cn(C)c2=O)nc1` [Fenebrutinib]: in data set [1], the “unbound partition coefficient Kp,uu CSF” value came out at 0.147. The Cmax in data set [1] (10 mg/kg, oral 10 mg/kg) was 553 ng/mL and 853 nM. In data set [1] (plasma, oral 10 mg/kg), the “terminal t1/2 for elimination” value is reported as “slightly prolonged”. Besides, the dissociation rate in data set [2] was 1.52e-05 s⁻¹. In data set [3], the IC50 worked out at 19.8 nM.

For the compound `C=CC(=O)N1CCC[C@@H](n2c(=O)n(-c3ccc(Oc4ccccc4)cc3)c3c(N)nccc32)C1` [Tolebrutinib], the IC50 in data set [4], in data set [5] and in data set [6] was not above 4 nM throughout. Further, in data set [1] (CSF, oral 10 mg/kg), the “CSF Cmax” value is listed as 9.6 nM. Besides, the “CSF exposure (Cmax)” value in data set [1] (CSF, oral 10 mg/kg, 10 mg/kg) was found to be 4.4 ng/mL. Besides, the “unbound partition coefficient Kp,uu CSF” value in data set [1] is reported as 0.397. Further, the half-life in data set [1] (10 mg/kg) is approximately 4 h. For the same compound, in data set [1] (10 mg/kg, oral 10 mg/kg), the Cmax was 103 ng/mL and 226 nM.
